Results reported in ChEMBL document CHEMBL1151041, “Synthesis and antitumor evaluation of 2-oxycarbonylpaclitaxels (paclitaxel-2-carbonates)” (Bioorg Med Chem Lett, 1994).
Calls of active or inactive are those of the source. The calls are words filed in the database; no cut-off is given here.

Experiments:
HCT-116 = test: Compound was tested for its cytotoxicity against human colon cancer cell line HCT116; format: functional, cell-based
M109 [1] = test: In vivo antitumor activity expressed as percent median survival time of treated mice to saline treated mice against murine lung carcinoma M109 at 90 mg/kg (ip) on days 1, 5 and 9; format: functional, Mus musculus
Rattus norvegicus [2] = species: Rattus norvegicus; test: Tested for tubulin polymerization assay in rat; Inactive; format: functional, organism-based
M109 [3] = test: In vivo antitumor activity expressed as percent median survival time of treated mice to saline treated mice against murine lung carcinoma M109 at 90 mg/kg (ip) on days 5 and 8; format: functional, Mus musculus
Rattus norvegicus [4] = species: Rattus norvegicus; test: Tested to promote microtubule assembly by tubulin polymerization assay in rat plasma at 37 degree C for 18 hr; Active; format: functional, organism-based
M109 [5] = test: In vivo antitumor activity expressed as percent median survival time of treated mice to saline treated mice against murine lung carcinoma M109 at 50 mg/kg (ip) on days 1, 5 and 9 reference to 3e; format: functional, Mus musculus
M109 [6] = test: In vivo antitumor activity expressed as percent median survival time of treated mice to saline treated mice against murine lung carcinoma M109 at 75 mg/kg (ip) on days 5 and 8 reference to 3i; format: functional, Mus musculus
M109 [7] = test: In vivo antitumor activity expressed as percent median survival time of treated mice to saline treated mice against murine lung carcinoma M109 at 75 mg/kg (ip) on days 5 and 8 reference to 3g; format: functional, Mus musculus
M109 [8] = test: In vivo antitumor activity expressed as percent median survival time of treated mice to saline treated mice against murine lung carcinoma M109 at 75 mg/kg (ip) on days 5 and 8 reference to 3a; format: functional, Mus musculus
M109 [9] = test: In vivo antitumor activity expressed as percent median survival time of treated mice to saline treated mice against murine lung carcinoma M109 at 30 mg/kg (ip) on days 1, 5 and 9 reference to 3f; format: functional, Mus musculus
M109 [10] = test: In vivo antitumor activity expressed as percent median survival time of treated mice to saline treated mice against murine lung carcinoma M109 at 30 mg/kg (ip) on days 1, 5 and 9 reference to 3d; format: functional, Mus musculus
M109 [11] = test: In vivo antitumor activity expressed as percent median survival time of treated mice to saline treated mice against murine lung carcinoma M109 at 75 mg/kg (ip) on days 5 and 8 reference to 3h; format: functional, Mus musculus
M109 [12] = test: In vivo antitumor activity expressed as percent median survival time of treated mice to saline treated mice against murine lung carcinoma M109 at 30 mg/kg (ip) on days 1, 5 and 9 reference to 3b; format: functional, Mus musculus
M109 [13] = test: In vivo antitumor activity expressed as percent median survival time of treated mice to saline treated control against murine lung carcinoma M109 at 50 mg/kg (ip) on days 5 and 8 reference to 3c; format: functional, Mus musculus

Row | SMILES | IC50 (HCT-116) [nM] | T/C (M109 [1]) [%] | Activity (Rattus norvegicus [2]) | T/C (M109 [3]) [%] | also measured
1 | CC(=O)O[C@H]1C(=O)[C@@]2(C)C([C@H](OC(=O)c3ccccc3)[C@]3(O)C[C@H](OC(=O)[C@H](OC(=O)OCCl)[C@@H](NC(=O)c4ccccc4)c4ccccc4)C(C)=C1C3(C)C)[C@]1(OC(C)=O)COC1C[C@@H]2O (stereo partly specified) | 30 | 275 | inactive |  | 
2 | CC(=O)O[C@H]1C(=O)[C@@]2(C)C([C@H](OC(=O)c3ccccc3)[C@]3(O)C[C@H](OC(=O)[C@H](OC(=O)OC(C)C)[C@@H](NC(=O)c4ccccc4)c4ccccc4)C(C)=C1C3(C)C)[C@]1(OC(C)=O)COC1C[C@@H]2O (stereo partly specified) | > 80 |  | inactive | 247 | 
3 | CC(=O)O[C@H]1C(=O)[C@@]2(C)C([C@H](OC(=O)c3ccccc3)[C@]3(O)C[C@H](OC(=O)[C@H](OC(=O)Oc4cccc(N(C)C)c4)[C@@H](NC(=O)c4ccccc4)c4ccccc4)C(C)=C1C3(C)C)[C@]1(OC(C)=O)COC1C[C@@H]2O (stereo partly specified) | 16 |  | inactive | 226 | 
4 | CC(=O)O[C@H]1C(=O)[C@@]2(C)C([C@H](OC(=O)c3ccccc3)[C@]3(O)C[C@H](OC(=O)[C@H](OC(=O)OCc4ccccc4)[C@@H](NC(=O)c4ccccc4)c4ccccc4)C(C)=C1C3(C)C)[C@]1(OC(C)=O)COC1C[C@@H]2O (stereo partly specified) | 30 | 310 | inactive |  | 
5 | C=C(C)OC(=O)O[C@@H](C(=O)O[C@H]1C[C@@]2(O)[C@@H](OC(=O)c3ccccc3)C3[C@]4(OC(C)=O)COC4C[C@H](O)[C@@]3(C)C(=O)[C@H](OC(C)=O)C(=C1C)C2(C)C)[C@@H](NC(=O)c1ccccc1)c1ccccc1 (stereo partly specified) | < 15 |  | inactive | 235 | 
6 | C=COC(=O)O[C@@H](C(=O)O[C@H]1C[C@@]2(O)[C@@H](OC(=O)c3ccccc3)C3[C@]4(OC(C)=O)COC4C[C@H](O)[C@@]3(C)C(=O)[C@H](OC(C)=O)C(=C1C)C2(C)C)[C@@H](NC(=O)c1ccccc1)c1ccccc1 (stereo partly specified) | 40 | >475 | inactive |  | 
7 | CCOC(=O)O[C@@H](C(=O)O[C@H]1C[C@@]2(O)[C@@H](OC(=O)c3ccccc3)C3[C@]4(OC(C)=O)COC4C[C@H](O)[C@@]3(C)C(=O)[C@H](OC(C)=O)C(=C1C)C2(C)C)[C@@H](NC(=O)c1ccccc1)c1ccccc1 (stereo partly specified) | 30 | >475 |  |  | Activity (Rattus norvegicus [4]): Active
8 | CC(=O)O[C@H]1C(=O)[C@@]2(C)[C@H]([C@H](OC(=O)c3ccccc3)[C@]3(O)C[C@H](OC(=O)[C@H](O)[C@@H](NC(=O)c4ccccc4)c4ccccc4)C(C)=C1C3(C)C)[C@]1(OC(C)=O)CO[C@@H]1C[C@@H]2O [PACLITAXEL] |  |  |  |  | T/C (M109 [5]): 270%; T/C (M109 [6]): 262%; T/C (M109 [7]): 262%; T/C (M109 [8]): 276%; T/C (M109 [9]): 275%; T/C (M109 [10]): 275%; T/C (M109 [11]): 262%; T/C (M109 [12]): 275%; T/C (M109 [13]): 197%
9 | COC(=O)O[C@@H](C(=O)O[C@H]1C[C@@]2(O)[C@@H](OC(=O)c3ccccc3)C3[C@]4(OC(C)=O)COC4C[C@H](O)[C@@]3(C)C(=O)[C@H](OC(C)=O)C(=C1C)C2(C)C)[C@@H](NC(=O)c1ccccc1)c1ccccc1 (stereo partly specified) | > 80 |  |  | 162 | Activity (Rattus norvegicus [4]): Active
10 | CC(=O)O[C@H]1C(=O)[C@@]2(C)C([C@H](OC(=O)c3ccccc3)[C@]3(O)C[C@H](OC(=O)[C@H](OC(=O)Oc4ccccc4)[C@@H](NC(=O)c4ccccc4)c4ccccc4)C(C)=C1C3(C)C)[C@]1(OC(C)=O)COC1C[C@@H]2O (stereo partly specified) | 7 |  | inactive | 203 | 
